Laboratory results reported in ChEMBL document CHEMBL1177848, “Synthesis of novel 6,6a,7,8-tetrahydro-5H-naphtho[1,2-e]pyrimido[4,5-b][1,4]diazepines under microwave irradiation as potential anti-tumor agents” (2010).
Active and inactive are the calls of the source.

Key:
Assay type in all cases: functional, cell-based
NCI-H460 = assay: Growth inhibition of human NCI-H460 cells at 1 uM after 48 hrs by sulforhodamine B assay
IGROV-1 = assay: Growth inhibition of human IGROV1 cells at 1 uM after 48 hrs by sulforhodamine B assay
SR = assay: Growth inhibition of human SR cells at 1 uM after 48 hrs by sulforhodamine B assay
Malme-3M = assay: Growth inhibition of human MALME-3M cells at 1 uM after 48 hrs by sulforhodamine B assay
SW-620 = assay: Growth inhibition of human SW620 cells at 1 uM after 48 hrs by sulforhodamine B assay
786-0 = assay: Growth inhibition of human 786-0 cells at 1 uM after 48 hrs by sulforhodamine B assay
NCI-H322M = assay: Growth inhibition of human […] cells at 1 uM after 48 hrs by sulforhodamine B assay
SNB-75 = assay: Growth inhibition of human SNB75 cells at 1 uM after 48 hrs by sulforhodamine B assay
OVCAR-4 = assay: Growth inhibition of human OVCAR4 cells at 1 uM after 48 hrs by sulforhodamine B assay
M14 = assay: Growth inhibition of human M14 cells at 1 uM after 48 hrs by sulforhodamine B assay
NCI-H226 = assay: Growth inhibition of human NCI-H226 cells at 1 uM after 48 hrs by sulforhodamine B assay
SK-MEL-5 = assay: Growth inhibition of human SK-MEL-5 cells at 1 uM after 48 hrs by sulforhodamine B assay
HCT-15 = assay: Growth inhibition of human HCT15 cells at 1 uM after 48 hrs by sulforhodamine B assay
MOLT-4 = assay: Growth inhibition of human MOLT4 cells at 1 uM after 48 hrs by sulforhodamine B assay
RPMI-8226 = assay: Growth inhibition of human RPMI8226 cells at 1 uM after 48 hrs by sulforhodamine B assay
BT-549 = assay: Growth inhibition of human BT549 cells at 1 uM after 48 hrs by sulforhodamine B assay
TK-10 = assay: Growth inhibition of human TK10 cells at 1 uM after 48 hrs by sulforhodamine B assay
Hs-578T = assay: Growth inhibition of human Hs 578T cells at 1 uM after 48 hrs by sulforhodamine B assay
HOP-62 = assay: Growth inhibition of human HOP62 cells at 1 uM after 48 hrs by sulforhodamine B assay
SN12C = assay: Growth inhibition of human SN12C cells at 1 uM after 48 hrs by sulforhodamine B assay
HCT-116 = assay: Growth inhibition of human HCT116 cells at 1 uM after 48 hrs by sulforhodamine B assay
UACC-257 = assay: Growth inhibition of human UACC257 cells at 1 uM after 48 hrs by sulforhodamine B assay
ACHN = assay: Growth inhibition of human ACHN cells at 1 uM after 48 hrs by sulforhodamine B assay
SK-MEL-2 = assay: Growth inhibition of human SK-MEL-2 cells at 1 uM after 48 hrs by sulforhodamine B assay
A498 = assay: Growth inhibition of human A498 cells at 1 uM after 48 hrs by sulforhodamine B assay
EKVX = assay: Growth inhibition of human EKVX cells at 1 uM after 48 hrs by sulforhodamine B assay
UO-31 = assay: Growth inhibition of human UO31 cells at 1 uM after 48 hrs by sulforhodamine B assay
RXF 393 = assay: Growth inhibition of human RXF393 cells at 1 uM after 48 hrs by sulforhodamine B assay
HT-29 = assay: Growth inhibition of human HT-29 cells at 1 uM after 48 hrs by sulforhodamine B assay
HCC 2998 = assay: Growth inhibition of human HCC2998 cells at 1 uM after 48 hrs by sulforhodamine B assay
MDA-MB-435 = assay: Growth inhibition of human MDA-MB-435 cells at 1 uM after 48 hrs by sulforhodamine B assay
NCI-H23 = assay: Growth inhibition of human NCI-H23 cells at 1 uM after 48 hrs by sulforhodamine B assay
HOP-92 = assay: Growth inhibition of human HOP92 cells at 1 uM after 48 hrs by sulforhodamine B assay
HL-60 = assay: Growth inhibition of human HL-60(TB) cells at 1 uM after 48 hrs by sulforhodamine B assay
MCF7 = assay: Growth inhibition of human MCF7 cells at 1 uM after 48 hrs by sulforhodamine B assay
UACC-62 = assay: Growth inhibition of human UACC62 cells at 1 uM after 48 hrs by sulforhodamine B assay
A549 = assay: Growth inhibition of human A549 cells at 1 uM after 48 hrs by sulforhodamine B assay
T47D = assay: Growth inhibition of human T47D cells at 1 uM after 48 hrs by sulforhodamine B assay
SF530 = assay: Growth inhibition of human SF530 cells at 1 uM after 48 hrs by sulforhodamine B assay
SK-MEL-28 = assay: Growth inhibition of human SK-MEL-28 cells at 1 uM after 48 hrs by sulforhodamine B assay
OVCAR-8 = assay: Growth inhibition of human OVCAR8 cells at 1 uM after 48 hrs by sulforhodamine B assay
CAKI-1 = assay: Growth inhibition of human Caki1 cells at 1 uM after 48 hrs by sulforhodamine B assay
DU-145 = assay: Growth inhibition of human DU145 cells at 1 uM after 48 hrs by sulforhodamine B assay
SF-295 = assay: Growth inhibition of human SF295 cells at 1 uM after 48 hrs by sulforhodamine B assay
OVCAR-3 = assay: Growth inhibition of human OVCAR-3 cells at 1 uM after 48 hrs by sulforhodamine B assay
MDA-MB-231 = assay: Growth inhibition of human MDA-MB-231 cells at 1 uM after 48 hrs by sulforhodamine B assay
CCRF-CEM = assay: Growth inhibition of human CCRF-CEM cells at 1 uM after 48 hrs by sulforhodamine B assay
MDA-MB-468 = assay: Growth inhibition of human MDA-MB-468 cells at 1 uM after 48 hrs by sulforhodamine B assay
KM12 = assay: Growth inhibition of human KM12 cells at 1 uM after 48 hrs by sulforhodamine B assay
NCI-H522 = assay: Growth inhibition of human NCI-H522 cells at 1 uM after 48 hrs by sulforhodamine B assay
K562 = assay: Growth inhibition of human K562 cells at 1 uM after 48 hrs by sulforhodamine B assay
U-251 = assay: Growth inhibition of human U251 cells at 1 uM after 48 hrs by sulforhodamine B assay
SF-539 = assay: Growth inhibition of human SF539 cells at 1 uM after 48 hrs by sulforhodamine B assay
LOX IMVI = assay: Growth inhibition of human LOXIMVI cells at 1 uM after 48 hrs by sulforhodamine B assay
SF-268 = assay: Growth inhibition of human SF268 cells at 1 uM after 48 hrs by sulforhodamine B assay
PC-3 = assay: Growth inhibition of human PC3 cells at 1 uM after 48 hrs by sulforhodamine B assay
NCI/ADR-RES = assay: Growth inhibition of human NCI/ADR-RES cells at 1 uM after 48 hrs by sulforhodamine B assay
COLO 205 = assay: Growth inhibition of human COLO205 cells at 1 uM after 48 hrs by sulforhodamine B assay

Measured: growth inhibition (GI)

Nc1ncnc2c1N=C1c3ccccc3CCC1C(c1ccc(Cl)cc1)N2 (stereo unspecified)
active: NCI-H460 | IGROV-1 | SR | Malme-3M | SW-620 | 786-0 | NCI-H322M | SNB-75 | OVCAR-4 | M14 | NCI-H226 | SK-MEL-5 | HCT-15 | MOLT-4 | RPMI-8226 | BT-549 | TK-10 | Hs-578T | HOP-62 | SN12C | HCT-116 | UACC-257 | ACHN | SK-MEL-2 | A498 | EKVX | UO-31 | RXF 393 | HT-29 | HCC 2998 | MDA-MB-435 | NCI-H23 | HOP-92 | HL-60 | MCF7 | UACC-62 | A549 | T47D | SF530 | SK-MEL-28 | OVCAR-8 | CAKI-1 | DU-145 | SF-295 | OVCAR-3 | MDA-MB-231 | CCRF-CEM | MDA-MB-468 | KM12 | NCI-H522 | K562 | U-251 | SF-539 | LOX IMVI | SF-268 | PC-3 | NCI/ADR-RES | COLO 205

Nc1ncnc2c1N=C1c3ccccc3CCC1C(c1ccc(F)cc1)N2 (stereo unspecified)
active: NCI-H460 | IGROV-1 | SR | Malme-3M | SW-620 | 786-0 | NCI-H322M | SNB-75 | OVCAR-4 | M14 | NCI-H226 | SK-MEL-5 | HCT-15 | MOLT-4 | RPMI-8226 | BT-549 | TK-10 | Hs-578T | HOP-62 | SN12C | HCT-116 | UACC-257 | ACHN | SK-MEL-2 | A498 | EKVX | UO-31 | RXF 393 | HT-29 | HCC 2998 | MDA-MB-435 | NCI-H23 | HOP-92 | HL-60 | MCF7 | UACC-62 | A549 | T47D | SF530 | SK-MEL-28 | OVCAR-8 | CAKI-1 | DU-145 | SF-295 | OVCAR-3 | MDA-MB-231 | CCRF-CEM | MDA-MB-468 | KM12 | NCI-H522 | K562 | U-251 | SF-539 | LOX IMVI | SF-268 | PC-3 | NCI/ADR-RES | COLO 205
